Results on five molecules are retold here after US7439351B2, “2′ or 3′ -deoxy and 2′, 3′-dideoxy-β-L-pentofuranonucleo-side compounds, method of preparation and application in therapy, especially as anti-viral agents” (The UAB Research Foundation, priority 1993, dated 2008).

Structures are written as SMILES. pIC50: −log10 of the molar value. Entries after “also recorded” stand apart in the source; their conditions may differ. A value given as a limit tells only on which side of the number the result lay.

One series concerns noninfected CEM-SS cells. Kind of series: Toxic effect on noninfected cells (formazan formation), CEM-SS. Particulars: at least 50% inhibition of formazan formation, 5 days. The protocol: (§1) The toxic effect on the noninfected cells is assessed by calorimetric reaction based on the capacity of live cells to reduce 3-(4,5-dimethylthiozol-2-yl)-2,5-diphenyltetrazolium bromide to formazan after incubating for 5 days in the presence of various concentrations of the compounds.

The next series relates to noninfected PBM cells. In words: Toxic effect on noninfected cells (formazan formation), PBM. Particulars: at least 50% inhibition of formazan formation, 5 days. The protocol: as §1
Another series has as its system noninfected PBMC. In words: Toxic effect on noninfected cells (formazan formation), PBMC. Particulars: at least 50% inhibition of formazan formation, 5 days. The protocol: as §1
In series [1] the test system is HIV. Particulars: CEM cell culture; Mansuri et al. 1991; read-out: IC50 against HIV; cited from earlier work.
Series [2] has as its system HIV. Particulars: prior art reports; listed as β-L-DDC; cited from earlier work.
For series [3], the system named is herpes simplex viruses (HSV). Particulars: cell cultures; Spadari et al. 1992; cited from earlier work.

With `Cc1cn([C@H]2C[C@H](N=[N+]=[N-])[C@@H](CO)O2)c(=O)[nH]c1=O` [AZT, reference compound], the CD50 in the series on noninfected CEM-SS cells was >10^−4 M; with noninfected PBM cells it was 7e-05 M; in the series on noninfected PBMC it was 8e-05 M.
In general, pIC50 refers to −log10 of the IC50, conventionally taken in molar units. For the molecule `Nc1ccn([C@@H]2CC[C@H](CO)O2)c(=O)n1` [Compound 21a, 2′,3′-dideoxy-β-L-cytidine], the CD50 in the series on noninfected CEM-SS cells was 8.3e-05 M; in the series on noninfected PBM cells it was 10^−4 M; with noninfected PBMC, 10^−4 M. Further, the negative logarithm of the IC50 (pIC50) in the series on HIV [1] is 6.18. In addition, the “activity against HIV (in words)” value in the series on HIV [2] is “relatively limited antiviral activity; also recorded: no activity against HIV”.
Take `Nc1nc(=O)n([C@@H]2CC[C@H](CO)O2)cc1F` [Compound 21b, 2′,3′-dideoxy-β-L-5-fluorocytidine]: the CD50 with noninfected CEM-SS cells is 9e-05 M; with noninfected PBM cells, 10^−4 M; with noninfected PBMC, 10^−4 M.
Take `Nc1ccn([C@H]2CC[C@@H](CO)O2)c(=O)n1` [DDC, reference compound]: the CD50 with noninfected CEM-SS cells was 6e-05 M; in the series on noninfected PBM cells, 7e-05 M; in the series with noninfected PBMC, 2.5e-05 M.
On to `Cc1cn([C@@H]2C[C@@H](O)[C@H](CO)O2)c(=O)[nH]c1=O` [β-L-Thymidine], for which the “antiviral activity against HSV (in words)” value in series [3] is listed as “relatively limited antiviral activity”.
